Assay results reported in patent US20190313679A1, “SUGAR-DIPEPTIDE CONJUGATES AS FLAVOR MOLECULES” (NESTEC S.A., priority 2016, published 2019).
Residues, ends and D or L forms follow the SMILES beside them.

Tests used:
Assay type in all cases: in vivo
[1] = Comparison between soup bases containing the sugar conjugate and the mixture of glucose and glutamyl-threonine; details: soup base with 2 g/L (4.57 mmol/L) versus reference soup with same molar glucose and glutamyl-threonine, 6 panelists
Procedure: A first soup was prepared by adding 2 g/L (4.57 mmol/L) 1-deoxy-D-fructosyl-N-glutamyl-threonine in the soup base described above under Example 4. A second soup was prepared by adding the corresponding same molar concentrations of glucose and glutamyl-threonine to the same soup base. The resulting soups were then evaluated by 6 panelists following the same procedure than described above under Example 4.

[2] = Sensory evaluation of the compounds in water; details: 2 g/L in water, 12 panelists
Procedure: The compounds glutamyl-threonine and 1-deoxy-D-fructosyl-N-glutamyl-threonine were each dissolved and diluted in water in a final concentration of 2 g/L. The solutions were then evaluated by 12 panelists, which were previously screened and selected for their sensory abilities.

[3] = Seasoning compositions: tomato soups with added compound; details: tomato soup, 0.5 g/L or 2.5 g/L, versus reference soups without the compounds
Procedure: Tomato soups can be prepared by dissolving 6 g tomato base powder as can be obtained in the commerce in 500 mL hot water. 1-deoxy-D-fructosyl-N-glutamyl-threonine or alternatively 1-deoxy-D-fructosyl-N-glutamyl-serine can be added at a concentration of 0.5 g/L or 2.5 g/L to the soups in order to improve their taste and flavor profile. […] For example, a similar tomato soup can now be prepared which has the same saltiness as the reference tomato soup but comprising less sodium chloride.

[4] = Sensory evaluation of the compounds in a chicken soup base; details: chicken soup with 2 g/L versus reference samples, 12 panelists
Procedure: Chicken soups were prepared by dissolving 6 g chicken base powder (detailed recipe shown in Table 1) and 1 g monosodium glutamate in 500 mL hot water. 1-Deoxy-D-fructosyl-N-glutamyl-threonine was then added separately at 2 g/L final concentrations.
The sensory evaluation was carried out by 12 panelists, previously screened for their sensory abilities. The panelists assessed a maximum of 6 samples per session. They had Vittel water and crackers as mouth cleansers. In all the cases, the panelists were instructed to evaluate the samples for the following attributes: overall flavor persistency, umami, meaty, grilled/popcorn-like, bread-like, boiled chicken, sweet, bitter, and salty. The samples were coded with random 3-digit numbers according to a balanced presentation design, heated at approximately 65° C. and then presented in 40 mL brown plastic containers and under red light to minimize appearance bias (the serving was approximately 25 mL per sample).
The following statistical tests were used to analyze the sensory raw data: First, the Analysis of Variance (ANOVA) with two factors, products (fixed factor) and subject (random factor) was computed in order to determine if there was any difference among samples. The limit of significance (alpha risk) was set at 5%. […] The limit of significance (alpha risk) was set at 5%.

Row | SMILES | salty and umami taste, tasted with nose-clips [1] | savory flavors, tasted without nose-clips [1] | perceived saltiness of the aqueous solution versus the reference samples [2] | perceived saltiness [3] | umami [3] | bitterness [4] | saltiness ([4]; FIG. 1) | meaty taste ([4]; clear trend) | umami taste ([4]; clear trend) | taste of the aqueous solution [2]
1 | CC(O)[C@H](NC(=O)[C@H](CCC(=O)O)NCC1(O)OCC(O)C(O)C1O)C(=O)O (stereo partly drawn) [1-deoxy-D-fructosyl-N-glutamyl-threonine] | significantly more salty and umami | clearly more enhanced savory flavors | much more salty | more salty | more pronounced umami | decreased | significantly increased | improved | improved | 
2 | C[C@@H](O)[C@H](NC(=O)[C@@H](N)CCC(=O)O)C(=O)O [glutamyl-threonine, reference compound] (H-Glu-Thr-OH) |  |  |  |  |  |  |  |  |  | slightly umami and salty
